Substitutions are numbered along the chain they refer to. Where two headings read alike, the source gives them in different places.

The target in experiment [1] is R128(X) ΔG210 double-mutant enzymes. It counts as biochemical, Amaranthus tuberculatus.
For experiment [2], the target named is T1, PPO2 R128M ΔG210 in Escherichia coli hemG (Amaranthus tuberculatus, UniProt Q0NZW9, DEL210-210/R128M, cells depend on it).
T1 sequence (Q0NZW9 with tags, fused parts or gaps R128M/DEL210-210): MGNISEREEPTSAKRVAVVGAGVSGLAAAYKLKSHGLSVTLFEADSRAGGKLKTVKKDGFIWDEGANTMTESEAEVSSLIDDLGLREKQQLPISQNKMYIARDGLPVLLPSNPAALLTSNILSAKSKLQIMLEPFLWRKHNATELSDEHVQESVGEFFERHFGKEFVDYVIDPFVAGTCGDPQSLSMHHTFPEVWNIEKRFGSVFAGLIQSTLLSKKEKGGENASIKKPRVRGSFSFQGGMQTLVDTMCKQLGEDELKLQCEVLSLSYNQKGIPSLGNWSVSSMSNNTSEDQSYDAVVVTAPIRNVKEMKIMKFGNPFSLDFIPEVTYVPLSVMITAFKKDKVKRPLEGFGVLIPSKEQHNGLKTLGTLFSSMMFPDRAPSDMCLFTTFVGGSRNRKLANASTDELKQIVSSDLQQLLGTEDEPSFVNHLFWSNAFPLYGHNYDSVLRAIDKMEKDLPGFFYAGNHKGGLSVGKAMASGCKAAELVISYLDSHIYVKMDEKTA
It counts as cell-based. The conditions noted are these: read-out: IC50 (E. coli hemG growth).

Experiment [3] concerns the target T2, PPO2 R128I ΔG210 (Amaranthus tuberculatus, UniProt Q0NZW9, DEL210-210/R128I).
T2 sequence (Q0NZW9 with tags, fused parts or gaps R128I/DEL210-210): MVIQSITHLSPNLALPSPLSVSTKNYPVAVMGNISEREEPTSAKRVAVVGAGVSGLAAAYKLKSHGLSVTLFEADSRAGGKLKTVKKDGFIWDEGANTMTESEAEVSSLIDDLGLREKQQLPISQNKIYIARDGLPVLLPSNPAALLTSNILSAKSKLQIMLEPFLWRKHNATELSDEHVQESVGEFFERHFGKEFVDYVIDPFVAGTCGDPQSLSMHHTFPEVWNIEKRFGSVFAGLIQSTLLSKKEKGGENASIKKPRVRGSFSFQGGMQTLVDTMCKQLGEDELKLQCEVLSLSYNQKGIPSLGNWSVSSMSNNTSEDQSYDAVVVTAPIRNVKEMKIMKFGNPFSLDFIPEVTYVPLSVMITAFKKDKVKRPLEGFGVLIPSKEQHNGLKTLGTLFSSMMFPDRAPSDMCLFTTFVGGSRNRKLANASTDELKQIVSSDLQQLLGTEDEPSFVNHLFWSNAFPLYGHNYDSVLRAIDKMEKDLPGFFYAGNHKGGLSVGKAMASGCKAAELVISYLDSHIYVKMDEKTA
Description: biochemical. It counts as biochemical.

For experiment [4], the target named is T3, PPO2 R128T ΔG210 in Escherichia coli hemG (Amaranthus tuberculatus, UniProt Q0NZW9, DEL210-210/R128T, cells depend on it).
T3 sequence (Q0NZW9 with tags, fused parts or gaps R128T/DEL210-210): T2 sequence (Q0NZW9 with tags, fused parts or gaps R128I/DEL210-210) with I128T
It counts as cell-based. Conditions: read-out: IC50 (E. coli hemG growth).

Experiment [5] addresses T4, PPO2 R128E ΔG210 in Escherichia coli hemG (Amaranthus tuberculatus, UniProt Q0NZW9, DEL210/R128E, cells depend on it).
T4 sequence (Q0NZW9 with tags, fused parts or gaps R128E/DEL210): T1 sequence (Q0NZW9 with tags, fused parts or gaps R128M/DEL210-210) with M98E
Format: cell-based. The conditions noted are these: read-out: IC50 (E. coli hemG growth).

For experiment [6], the target named is T5, PPO2 R128H ΔG210 in Escherichia coli hemG (Amaranthus tuberculatus, UniProt Q0NZW9, DEL210/R128H, cells depend on it).
T5 sequence (Q0NZW9 with tags, fused parts or gaps R128H/DEL210): T2 sequence (Q0NZW9 with tags, fused parts or gaps R128I/DEL210-210) with I128H
It counts as cell-based. The conditions noted are these: read-out: IC50 (E. coli hemG growth).

Setting [7] is: read-out: IC50 (over R128(X) ΔG210 mutants).

For `CC(C)N(C)S(=O)(=O)NC(=O)c1cc(-n2c(=O)cc(C(F)(F)F)n(C)c2=O)c(F)cc1Cl` [Saflufenacil, saflufenacil], the IC50 was < 10000 nM in experiment [1] (setting [7]); > 10000 nM in experiment [2]; > 10000 nM in experiment [3]; > 10000 nM in experiment [4]; > 10000 nM in experiment [5]; > 10000 nM in experiment [6].

With `CS(=O)(=O)NC(=O)c1cc(Oc2ccc(C(F)(F)F)cc2Cl)ccc1[N+](=O)[O-]` [Fomesafen, fomesafen], the IC50 was < 10000 nM in experiment [1] (setting [7]) and > 10000 nM in experiment [3].

For `C#CCN1C(=O)C(F)(F)Oc2cc(F)c(-n3c(=O)n(C)c(=S)n(C)c3=O)cc21` [Trifludimoxazin, trifludimoxazin], the IC50 was 1 to 100 nM in experiment [1] (setting [7]); 67.4 nM in experiment [2]; 99.3 nM in experiment [3]; 67.5 nM in experiment [4]; 9.87 nM in experiment [5]; 90 nM in experiment [6]. In experiment [3], this molecule yielded a Resistance factor of 405.

`CCOC(=O)C(C)OC(=O)c1cc(Oc2ccc(C(F)(F)F)cc2Cl)ccc1[N+](=O)[O-]` (stereo not shown) [Lactofen, lactofen]: the IC50 is > 10000 nM in experiment [1] (read-out: IC50 values); 100 to 1000 nM in experiment [1] (read-out: IC50 values (range over variants)); > 10000 nM in experiment [2]; 1950 nM in experiment [3]; > 10000 nM in experiment [4]; 2890 nM in experiment [5]. For the same molecule, in experiment [6], the IC50 was > 10000 nM.

The values above are taken from PMC10092844, “Inhibition profile of trifludimoxazin towards PPO2 target site mutations” (Pest Management Science, 2022).
